Test results reported in PMC2737686 (Virology, 2009).
Peptide text beside a SMILES is read from it.

Experiments:
[1] = tested on: ε RNA; test: Filter-binding assay of peptides, ε RNA; parameters: species or system Duck hepatitis B virus; settings: peptide 10 pMol to 0.3 pMol on filter; 32P-labeled ε RNA
[2] = tested on: double-stranded DNA fragment; test: Filter-binding assay of peptides, double-stranded DNA; settings: 32P-labeled double-stranded DNA fragment
[3] = tested on: DHBV core gene RNA; test: Filter-binding assay of peptides, DHBV core gene RNA; parameters: species or system Duck hepatitis B virus; settings: 32P-labeled DHBV core gene RNA

SMILES: CC[C@H](C)[C@H](NC(=O)[C@H](CCCNC(=N)N)NC(=O)[C@H](CC(N)=O)NC(=O)[C@@H]1CCCN1C(=O)[C@H](Cc1c[nH]c2ccccc12)NC(=O)[C@@H](N)CO)C(=O)N[C@H](C(=O)NCC(=O)N[C@@H](CCCCN)C(=O)N[C@@H](CC(C)C)C(=O)N[C@@H](Cc1ccccc1)C(=O)N[C@@H](CC(C)C)C(=O)N[C@H](C(=O)N[C@@H](CC(=O)O)C(=O)N[C@@H](CCCCN)C(=O)N[C@@H](CC(N)=O)C(=O)N[C@@H](CO)C(=O)N[C@@H](CCCNC(=N)N)C(=O)N[C@@H](CC(N)=O)C(=O)N[C@H](C(=O)N[C@@H](CCC(=O)O)C(=O)N[C@@H](CCC(=O)O)C(=O)N[C@@H](C)C(=O)N[C@@H](CCCNC(=N)N)C(=O)N[C@@H](CC(C)C)C(=O)N[C@H](C(=O)N[C@H](C(=O)N[C@@H](CC(=O)O)C(=O)N[C@@H](Cc1ccccc1)C(=O)N[C@@H](CO)C(=O)N[C@@H](CCC(N)=O)C(=O)N[C@@H](Cc1ccccc1)C(=O)N[C@@H](CO)C(=O)N[C@@H](CCCCN)C(=O)NCC(=O)N[C@@H](CCCCN)C(=O)O)C(C)C)C(C)C)[C@@H](C)O)C(C)C)[C@@H](C)O [RT1C] (H-SWPNRITGKLFLVDKNSRNTEEARLVVDFSQFSKGK-OH; N-terminus and C-terminus assumed)
- RNA binding to ε, relative (peptide titration) [1]: bound RNA less well than the T3B peptide
- Binding to double-stranded DNA [2]: able to bind to an irrelevant RNA derived from the DHBV core gene and to a double-stranded DNA fragment
- Binding to irrelevant DHBV core gene RNA [3]: able to bind to an irrelevant RNA derived from the DHBV core gene
